Assay results: US20230091810A1, “FIRST-IN-CLASS OF SHMT2 AND MTHFD2 INHIBITORS AS ANTITUMOR AGENTS” (Duquesne University of the Holy Spirit, priority 2017, published 2023)
Where two headings read alike, the source gives them in different places.

Columns and labels:
Assay type in all cases: cell-based, human
[1] = tested on: HCT116 (CTC); test: proliferation assay, HCT116 colon tumor cells; conditions: folate-/glycine-free RPMI1640 with 25 nM leucovorin, 96 h, read-out: IC50s (SE) HCT116 (CTC)
Description: (§1) Proliferation assays were performed with engineered Chinese hamster ovary (CHO) cell lines R2 (transporter-null), PC43-10 (expresses RFC only), RT16 (FRα only), and R2/PCFT4 (PCFT only) cultured in folate-/glycine-free RPMI1640 supplemented with 25 nM leucovorin. Additional results are shown for HCT116 (colon tumor cells (CTC)), IGROV1 (epithelial ovarian cancer (EOC) cells), H460 (non-small cell lung cancer (NSCLC) cells), MIAPaCa-2 (pancreatic cancer (PaC) cells), and HPAC (PaC).
(§2) Cell culture and proliferation/protection assays. The HCT116 cell lines including the serine hydroxymethyltransferase (SHMT) 1, SHMT2, and methylene THF dehydrogenase 2 (MTHFD2) knockout (KO) cells were previously described (47,53). The H460 cell line was obtained from the American Type Culture Collection (Manassas, VA), whereas the MIA PaCa-2 cells were provided by Dr. Yubin Ge (Karmanos Cancer Institute). Cell lines were verified by STR analysis by Genetica DNA Laboratories (Burlington, NC). MTXRIIOua^R2-4 (i.e. R2) Chinese hamster ovary (CHO) cells were generously provided by Dr. Wayne Flintoff (University of Western Ontario) (54). From this parental R2 cell line, human RFC and PCFT were individually transfected to generate the isogenic CHO cell lines designated PC43-10 (RFC) and R2/PCFT4 (PCFT) (55-57). Human tumor cell lines were cultured in folate-free RPMI supplemented with 10% dialyzed fetal bovine serum (Sigma-Aldrich), 1% penicillin/streptomycin solution, 2 mM L-glutamine, and 25 nM leucovorin in a humidified atmosphere at 37° C. in the presence of 5% CO2 and 95% air. The CHO cell lines were cultured in alpha-minimal essential medium (alpha-MEM) supplemented with 10% bovine calf serum, 1% penicillin/streptomycin solution, and 2 mM L-glutamine. Additionally, the transfected CHO cell lines (i.e. R2/PCFT4 and PC43-10) were maintained under continuous selection with 1 mg/ml of G418. […]

[2] = tested on: H460 (NSCLC); test: proliferation assay, H460 non-small cell lung cancer cells; conditions: folate-/glycine-free RPMI1640 with 25 nM leucovorin, 96 h, read-out: IC50s (SE) H460 (NSCLC)
Description: as §1, §2

[3] = tested on: H460 cells; test: glycine/nucleoside protection of growth inhibition in H460 cells; conditions: for protection from growth inhibition by combined adenosine and glycine: adenosine 60 µM plus glycine 130 µM; for protection from growth inhibition by glycine or adenosine alone: glycine 130 µM or adenosine 60 µM, singly
Description: We also tested the protective effects of AICA (320 µM) which is metabolized to AICAR (ZMP) (AICARFTase substrate), thus circumventing the GARFTase step in de novo purine biosynthesis (27) (see FIG. 1). […] Analogous results were obtained with HCT116 and MIA PaCa-2 tumor cells (see FIG. 14).
(§3) For proliferation assays of the HCT116, H460, and MIA PaCa2 tumor cell lines, the cells were plated in 96-well plates in an identical manner to the CHO experiments, except that the maximal drug concentration was increased to 10 µM. Glycine/nucleoside protection experiments in CHO and tumor cell lines were performed in folate- and glycine-free RPMI 1640/10% dialyzed fetal bovine serum supplemented with 25 nM leucovorin without additions, or in the presence of adenosine (60 µM), thymidine (10 µM), glycine (130 µM) and/or 5-aminoimidazole-4-carboxamide (AICA) (320 µM). Growth of metabolite-treated cells was normalized to controls treated with metabolites and vehicle (i.e., DMSO) both singly and in combination. Treatments with all metabolites were performed in parallel on the same plate for a given drug.

[4] = tested on: HCT116 cells; test: targeted metabolomics with [2,3,3-2H]serine tracer, HCT116 cells; conditions: 10 µM drug; for increase of total serine: HCT116 WT cells, relative to WT controls; for M+1 serine: WT HCT116 cells
From the text: Identification of the mitochondrial enzyme target for AGF291, AGF320, and AGF347 by targeted metabolomics. […] The cells were processed for LC-MS analyses of total serine, and of M+3, M+2, M+1, and M+0 (unlabeled) serine (where M+n represents species with n deuterium atoms). The results with the drug-treated cells were compared to those for untreated cells. For WT HCT116 cells, the results were compared to those for SHMT2 KO, MTHFD2 KO, and SHMT1 KO cells (KO of SHMT2, MTHFD2, and SHMT1, respectively (20)). For H460 cells, controls included non-targeted control (NTC) and SHMT2 shRNA knockdown (KD) cells.
Targeted Metabolomics. Targeted metabolomics were performed essentially as previously described (47, 53). Briefly, cells (H460, HCT116, MIA PaCa-2) (1 million cells /dish for vehicle-treated samples, 1.5 million cells/dish for drug-treated samples) were seeded in triplicate 60 mm dishes in 5 ml of folate-free RPMI (contains glycine and unlabeled serine) supplemented with 10% dialyzed fetal bovine serum, 1% penicillin/streptomycin, 2 mM L-glutamine, and 25 nM leucovorin. Cells were allowed to adhere for 24 h. […] After 16 h, the cells were washed with PBS (3×), the media was replaced with folate- and serine-free culture media (containing glycine) supplemented with 10% dialyzed fetal bovine serine, 25 nM leucovorin, and [2,3,3-^2H]serine (250 µM), including 10 µM drug or DMSO vehicle. The cells were incubated for 24 h. All incubations were at 37° C. with 5% CO2. The media was aspirated, and cells were washed (3×) rapidly (< 30 s) with 5 mL ice-cold PBS; metabolism was quickly quenched with methanol:water (80:20) at -80° C. Cells were allowed to rock on dry ice for 10 min to cover the entire dish with 80:20 methanol:water (at -80° C.), then harvested by scraping and pipetting into 1.5 mL Eppendorf tubes. The tubes were centrifuged (4° C., 14000 RPM, 10 min) to fully extract metabolites into the methanol:water supernatant. The protein pellet was used for normalization. The supernatants were collected and analyzed by reversed-phase ion-pairing chromatography coupled with negative-mode electrospray-ionization high-resolution mass spectrometry on a stand-alone Orbitrap (ThermoFisher Exactive). Raw metabolite values were adjusted to correct for normal ion distributions and normalized to total proteins from the post-extraction pellet by solubilizing with 0.5 N NaOH and using the Folin-phenol protein method (13). Values below the limit of detection were assigned a value of 100 for normalization. Results for drug-treated and SHMT2 KD cells were normalized to vehicle-treated WT ± formate or NTC ± formate samples, as appropriate.

[5] = tested on: MIA PaCa-2 (PaC); test: proliferation assay, MIA PaCa-2 pancreatic cancer cells; conditions: folate-/glycine-free RPMI1640 with 25 nM leucovorin, 96 h, read-out: IC50s (SE) MIA PaCa-2 (PaC)
Description: as §1
Cell culture and proliferation/protection assays. The HCT116 cell lines including the serine hydroxymethyltransferase (SHMT) 1, SHMT2, and methylene THF dehydrogenase 2 (MTHFD2) knockout (KO) cells were previously described (47,53). The H460 cell line was obtained from the American Type Culture Collection (Manassas, VA), whereas the MIA PaCa-2 cells were provided by Dr. Yubin Ge (Karmanos Cancer Institute). Cell lines were verified by STR analysis by Genetica DNA Laboratories (Burlington, NC). MTXRIIOua^R2-4 (i.e. R2) Chinese hamster ovary (CHO) cells were generously provided by Dr. Wayne Flintoff (University of Western Ontario) (54). From this parental R2 cell line, human RFC and PCFT were individually transfected to generate the isogenic CHO cell lines designated PC43-10 (RFC) and R2/PCFT4 (PCFT) (55-57). Human tumor cell lines were cultured in folate-free RPMI supplemented with 10% dialyzed fetal bovine serum (Sigma-Aldrich), 1% penicillin/streptomycin solution, 2 mM L-glutamine, and 25 nM leucovorin in a humidified atmosphere at 37° C. in the presence of 5% CO2 and 95% air. The CHO cell lines were cultured in alpha-minimal essential medium (alpha-MEM) supplemented with 10% bovine calf serum, 1% penicillin/streptomycin solution, and 2 mM L-glutamine. Additionally, the transfected CHO cell lines (i.e. R2/PCFT4 and PC43-10) were maintained under continuous selection with 1 mg/ml of G418.
as §3

## Nc1nc2ccn(CCCc3ccc(C(=O)N[C@@H](CCC(=O)O)C(=O)O)cc3)c2c(=O)[nH]1 [AGF291]
[1]; Homo sapiens, HCT-116
  IC50: 2270 nM
[2]; Homo sapiens, NCI-H460
  IC50: 461 nM
[3]
  protection from growth inhibition by combined adenosine and glycine: substantially protective
  protection from growth inhibition by glycine or adenosine alone: neither glycine nor adenosine alone was fully protective
[4]
  increase of total serine: ~ 10 fold
  M+1 serine: nearly complete loss
[5]; Homo sapiens, MIA PaCa-2
  IC50: 3660 nM

## Nc1nc2ccn(CCCCCc3ccc(C(=O)N[C@@H](CCC(=O)O)C(=O)O)s3)c2c(=O)[nH]1 [AGF320]
[1]
  IC50: 737 nM
[2]
  IC50: 573 nM
[3]; AICA 320 µM with glycine
  reversal of growth inhibition by AICA (with glycine): modestly (and incompletely) reversed
[3]
  protection from growth inhibition by combined adenosine and glycine: substantially protective
  protection from growth inhibition by glycine or adenosine alone: neither glycine nor adenosine alone was fully protective
[4]
  increase of total serine: ~ 10 fold
  M+1 serine: nearly complete loss
[5]
  IC50: 2270 nM

## (2-amino-4-oxo-3,4-dihydro-5H-pyrrolo[3,2-d]pyrimidin-5-yl)butyl)-2-fluorobenzoyl)-L-glutamic acid [AGF347]
[1]
  IC50: 437 nM
[2]
  IC50: 214 nM
[3]
  protection from growth inhibition by combined adenosine and glycine: substantially protective
  protection from growth inhibition by glycine or adenosine alone: neither glycine nor adenosine alone was fully protective
[4]
  increase of total serine: ~ 10 fold
  M+1 serine: nearly complete loss
[5]
  IC50: 1380 nM
